# From US9254268B2, “Compositions comprising lipophilic active compounds and method for their preparation” (SOLUBEST LTD., priority 2007, dated 2016)
# Assays:
# [1] = Particle size of aqueous dispersions by Dynamic Light Scattering; type: physicochemical; conditions: powder suspended in water
# Description: (vii) Particle size of the nanodispersions: measurements were performed using Dynamic Light Scattering (DLS). The method was run on the Malvern Zen 3600, Zetasizer-nano series. The samples were prepared by suspending spray-dried powder in water (0.075-0.1%) at 25-30° C. First, water was added to the appropriate amount of the powder and the mixture was left for 15 min. Then, the suspension was magnetically stirred during 4 min at 300 rpm and 1 ml of the suspension was transferred to a cuvette for measurement. The cuvette was incubated inside the instrument during 5 min for stabilization prior measurement. A series of at least 5 repeating measurements was carried out at 25-30° C. Following parameters are reported from the analysis of volume weighed size distribution: polydispersity index (PDI), the diameter of the main fraction (Z-vol), volume % of main fraction.
# The powders produced as described in Examples 1-9 have been suspended in deionized water as described in method (vii) of the section Materials and Methods.
# In the Dynamic Light Scattering method, we used two main parameters to characterize the colloidal system: the hydrodynamic diameter of the particles and the width of distribution (polydispersity). […]
# [2] = Thermal properties by Differential Scanning Calorimetry (DSC); conditions: for melting enthalpy (melting energy) / melting temperature (endothermic peak): DSC, after preparation
# [3] = Albendazole dissolution in 0.05 M sodium lauryl sulfate; type: physicochemical; conditions: after 15 min
# Description: (iv) The dissolution test was performed in accordance with USP Dissolution Method <711> and FDA Dissolution Methods for Drug Products using the paddle apparatus Distek model 2100A. The quantification was performed using UV spectrophotometer. Appropriate amount of spray dried powders or tablets as well as control powders or tablets were dissolved in 1000 ml of 0.05 M water solution of sodium lauryl sulfate, at 37° C., […]
# [4] = Dissolution of resveratrol in Model Fasted Duodenal Solution (MFDS); type: physicochemical
# Description: The Model Fasted Duodenal Solution (MFDS) was prepared as follows: a mixture of sodium chloride (3.093 g), sodium hydrophosphate (1.719 g) and sodium taurocholate (0.8065 g) was dissolved in deionized water (300 g) using ultrasonic bath. Lecithin (0.2925 g) was dissolved in 2 ml methylene chloride and added to the buffered solution of sodium taurocholate. The resulting emulsion was stirred for 5 min and then methylene chloride was evaporated under vacuum. The obtained clear micellar solution was adjusted to the volume of 500 ml by deionized water.
# For the test procedure, the test resveratrol formulations or raw resveratrol powder (10 mg) were placed into 2 ml microcentrifuge tube and MFDS (1.8 ml) was added to the each tube. The tubes were gently shaken (about 50 rpm) at 37° C. and samplings were taken at 10, 20, 40, 60 and 120 min. For this purpose, the tubes were vortexed at the highest speed for 60 seconds and then centrifuged at 13 000 G for 60 seconds. The solid-free supernatant (0.4 ml) was mixed with 0.4 ml diluent (30% water adjusted to pH 2.5 with phosphoric acid and 70% acetonitrile) and this solution was inserted into an HPLC instrument for determination of resveratrol concentration.
compound,measurement,setting,value
"CC(C)c1c(C(=O)Nc2ccccc2)c(-c2ccccc2)c(-c2ccc(F)cc2)n1CC[C@@H](O)C[C@@H](O)CC(=O)O [Example 18, Atorvastatin]",kind of dispersion formed in water (observation),[1],coarse suspensions with large visible particles
same,"broad DSC peak, range","[2]; after storage of six months, attributed to beginning of crystallization",116-183 °C
"CC(C)OC(=O)C(C)(C)Oc1ccc(C(=O)c2ccc(Cl)cc2)cc1 [Fenofibrate starting material, Fenofibrate]",melting enthalpy (melting energy),[2],74.3 J/g
same,melting temperature (endothermic peak),[2],around 82 °C
"CCCSc1ccc2nc(NC(=O)OC)[nH]c2c1 [Raw albendazole crystalline powder, Albendazole]",albendazole dissolved,[3],16.6%
same,melting enthalpy (melting energy),[2],209.7 J/g
same,melting temperature (endothermic peak),[2],around 215 °C
"Oc1ccc(C=Cc2cc(O)cc(O)c2)cc1 [Resveratrol raw powder, Resveratrol]",Concentration of resveratrol,"[4]; 10 min, MFDS, 37° C.",76.65 µg/mL
same,Concentration of resveratrol,[4]; 20 min,103.15 µg/mL
same,Concentration of resveratrol,[4]; 40 min,119.3 µg/mL
same,Concentration of resveratrol,[4]; 60 min,121.05 µg/mL
same,Concentration of resveratrol,[4]; 120 min,155.6 µg/mL
